Data published in ChEMBL document CHEMBL6096732 (J Med Chem, 2025).
Activity calls are given as the source filed them. The calls are words filed in the database; no cut-off is given here.

How the values were obtained:
[1] = target: T1, Histone deacetylase 3 (Mus musculus) (UniProt O88895); assay: In vivo inhibition of HDAC3 in male C57BL/6 mouse model implanted with mouse B16-F10 cells assessed as increase in acetylated histone H3 level in tumor at 50 mg/kg, po co-administered with NP-19 as once daily dosage via gavage for 14 days by DAPI staining based immunofluorescence analysis; format: functional, organism-based; conditions: time 14.0 day
T1 sequence (whole entry): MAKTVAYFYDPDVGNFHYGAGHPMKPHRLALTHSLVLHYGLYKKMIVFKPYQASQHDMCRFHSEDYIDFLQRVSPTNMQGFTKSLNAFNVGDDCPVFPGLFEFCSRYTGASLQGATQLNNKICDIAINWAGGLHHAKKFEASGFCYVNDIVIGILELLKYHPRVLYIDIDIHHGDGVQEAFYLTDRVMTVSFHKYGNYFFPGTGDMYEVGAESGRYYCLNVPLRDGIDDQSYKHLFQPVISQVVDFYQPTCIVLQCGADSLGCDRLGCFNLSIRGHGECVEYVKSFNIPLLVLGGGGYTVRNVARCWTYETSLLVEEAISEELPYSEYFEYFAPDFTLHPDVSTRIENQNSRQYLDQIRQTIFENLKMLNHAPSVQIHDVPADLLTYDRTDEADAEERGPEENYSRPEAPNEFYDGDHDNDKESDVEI

[2] = Half-life in male Sprague-Dawley rat at 2 mg/kg, iv measured after 12 hrs by LC-MS/MS analysis; format: ADME, organism-based; conditions: in vivo
[3] = system: B16-F10; assay: Downregulation of PARP1 expression in mouse B16-F10 cells at 2 uM incubated for 24 hrs in presence of olaparib by Western blot analysis; format: functional, cell-based
[4] = MRT (0 to infinity) in male Sprague-Dawley rat at 2 mg/kg, iv measured after 12 hrs by LC-MS/MS analysis; format: ADME, organism-based; conditions: in vivo
[5] = Toxicity in male C57BL/6 mouse implanted with mouse B16-F10 cells assessed as histopathological changes in kidney at 50 mg/kg, po administered once daily for 14 days by HandE staining based microscopic analysis; format: organism-based; conditions: in vivo, 336 h, time 14 day
[6] = AUMC (0 to t) in male Sprague-Dawley rat at 2 mg/kg, iv measured after 12 hrs by LC-MS/MS analysis; format: ADME, organism-based; conditions: in vivo
[7] = system: 4T1; assay: Antitumor activity against mouse 4T1 cells implanted in female BALB/c mouse model assessed as induction of DNA damage by measuring increase in gamma-H2AX fluorescence intensity in tumor co-administrated orally with olaparib as once daily dose via gavage for 14 days by DAPI staining based immunofluorescence analysis; format: functional, cell-based; conditions: route po, time 14.0 day
[8] = system: 4T1; assay: Effect on acetylated alpha-tubulin expression level in mouse 4T1 cells at 5 to 20 uM incubated for 24 hrs by Western blot analysis; format: functional, cell-based; conditions: dose 5-20 µM
[9] = target: Histone deacetylase 8 (Homo sapiens, UniProt Q9BY41); assay: Inhibition of recombinant HDAC8 (unknown origin) using Boc-Lys(trifluoroacetyl)-AMC as substrate preincubated for 1 hr followed by substrate addition and measured after 2 hrs by fluorescence based micro plate reader analysis
Histone deacetylase 8, sequence (Q9BY41 whole entry): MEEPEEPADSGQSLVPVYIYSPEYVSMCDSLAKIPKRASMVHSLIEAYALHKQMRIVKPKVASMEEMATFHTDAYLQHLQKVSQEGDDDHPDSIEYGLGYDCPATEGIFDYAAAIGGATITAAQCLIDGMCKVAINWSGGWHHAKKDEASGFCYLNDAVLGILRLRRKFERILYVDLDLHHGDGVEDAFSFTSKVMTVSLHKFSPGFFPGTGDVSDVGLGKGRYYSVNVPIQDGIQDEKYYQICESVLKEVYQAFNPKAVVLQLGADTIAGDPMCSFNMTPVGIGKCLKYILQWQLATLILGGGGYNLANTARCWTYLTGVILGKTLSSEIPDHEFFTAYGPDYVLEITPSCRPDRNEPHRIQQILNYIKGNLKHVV

[10] = Clast in male Sprague-Dawley rat at 2 mg/kg, iv measured after 12 hrs by LC-MS/MS analysis; format: ADME, organism-based; conditions: in vivo, read-out: Clast
[11] = system: 4T1; assay: Antitumor activity against mouse 4T1 cells implanted in female BALB/c mouse model assessed as decrease in PAPR1 expression in tumor administrated orally as once daily dose via gavage for 14 days by Western blot analysis; format: functional, cell-based; conditions: route po, time 14.0 day
[12] = Clast in male Sprague-Dawley rat at 20 mg/kg, po measured after 12 hrs by LC-MS/MS analysis; format: ADME, organism-based; conditions: in vivo, read-out: Clast
[13] = AUMC (0 to infinity) in male Sprague-Dawley rat at 20 mg/kg, po measured after 12 hrs by LC-MS/MS analysis; format: ADME, organism-based; conditions: in vivo

inhibition [1]: Active | half-life [2]: 37.8 min | MRT inf [4]: 44.5 min | AUMCt [6]: 626.686 hr.hr.ug/L | IC50 [9]: > 10 µM | concentration at 12 h [10]: 0.475 ng/mL | concentration at 12 h [12]: 106 ng/mL | AUMC [13]: 39983.874 hr.hr.ug/L
Compound: CCCNNC(=O)c1ccc(Cn2c3ccccc3c3c(-c4ccccn4)nc4ccccc4c32)cc1
Activity [3]: Active | Activity [5]: Non-toxic | Activity [7]: Active | Activity [8]: inactive | Activity [11]: Active
